Here are results for one compound from patent US6303617A, “Serotonin-like 9-substituted hypoxanthine and methods of use” (Neotherapeutics, Inc., priority 1999, dated 2001).

Test [1] deals with total serum cholesterol. Put plainly: Total serum cholesterol in Swiss Webster mice fed a high cholesterol or normal diet. It is filed as in vivo. The following applies: dosed on days 6 and 7 of diet, serum on day 8; FIG. 5. On the procedure: (§1) On days 6 and 7 the mice were given the compound N-(2-(5-hydroxyindol-3-yl)ethyl)-3-(6-oxohydropurin-9-yl)propanamide (AIT-202), a positive control (bezafibrate), or a vehicle. The animals were fasted overnight and on day 8 trunk blood was collected. Total cholesterol and HDL cholesterol were measured in serum.

Test [2] has as its system obese mice. Put plainly: Control of obesity in naturally obese mice, 14 days oral. It is filed as in vivo, mouse. The following applies: naturally obese mice (>45 g), daily oral gavage, three doses, FIG. 4. On the procedure: The activity of N-(2-(5-hydroxyindol-3-yl)ethyl)-3-(6-oxohydropurin-9-yl)propanamide (AIT-202) in controlling obesity in mice was tested. Mice from the existing animal colony of NeoTherapeutics (Irvine, Calif.) which were naturally obese (greater than 45 grams in weight) were treated with N-(2-(5-hydroxyindol-3-yl)ethyl)-3-(6-oxohydropurin-9-yl)propanamide daily orally by gavage for 14 days. The mice were dosed with one of three doses of N-(2-(5-hydroxyindol-3-yl)ethyl)-3-(6-oxohydropurin-9-yl)propanamide or vehicle (0.5% methylcellulose). Their weight and food consumption were monitored daily.

The subject of test [3] is HDL cholesterol. Kind of test: HDL cholesterol in serum of Swiss Webster mice fed a high cholesterol or normal diet. In kind it is in vivo. The following applies: dosed on days 6 and 7 of diet, serum on day 8; FIG. 5. On the procedure: as §1
Test [4] has as its system total serum cholesterol. Kind of test: Lowering of total serum cholesterol in mice. The following applies: 300 mg/kg oral, 24 hours before determination; 5 mice; vs control group; decrease of 15% or more considered significant. It is filed as in vivo, mouse. On the procedure:
The activity of N-(2-(5-hydroxyindol-3-yl)ethyl)-3-(6-oxohydropurin-9-yl)propanamide (AIT-202) in lowering total serum cholesterol was tested in mice. Mice (5 mice) were administered N-(2-(5-hydroxyindol-3-yl)ethyl)-3-(6-oxohydropurin-9-yl)propanamide orally at a dosage of 300 mg/kg body weight for 24 hours before cholesterol determination. Total serum cholesterol was determined by standard methods. […] A decrease of 15% or more is considered significant in this test.

Test [5] concerns monoamine oxidase A/B. Put plainly: Inhibition of monoamine oxidase A/B catalytic activity (mouse brain mitochondria, tyramine substrate). It is filed as biochemical. The procedure:
Experiments were carried out to determine whether the serotonin analogue N-(2-(5-hydroxyindol-3-yl)ethyl)-3-(6-oxohydropurin-9-yl)propanamide (AIT-202) inhibited monoamine oxidases A and B. These experiments were performed as follows:
Mice (3-5 mice) were sacrificed by cervical dislocation. The brains were isolated and placed immediately in 10 ml cold isolation medium (IM) (500 μM EDTA, 5 mM HEPES, 0.25 M sucrose, and 10 mg/L bovine serum albumin (BSA)). The brains were minced and rinsed twice with 10 mL IM. The brains were then homogenized (5-6 strokes) in 10 mL IM. A volume (20 mL) of IM was then added and the homogenized preparation was centrifuged 8-10 minutes at 600×g at 4° C. The supernatant was transferred to a new tube. […]
For the enzyme assays, 1.0 mL to 1.5 mL 50 mM sodium phosphate, pH 7.4 containing 5 μM scopoletin and 2 U/mL horseradish peroxidase) were aliquoted in the wells of a Falcon 24-well plate (reaction mixture or RM). […] The preincubation was carried out in the Cytofluor® 4000 (PerSeptive Biosystems) and the baseline fluorescence at λex =360 nm and λem =460 nm was recorded. After 6 min, the reading was interrupted and 150-166 μM tyramine (monoamine oxidase A and monoamine oxidase B substrate) or the corresponding amount of water were added according to the plate layout. The reading was continued for approximately 30 minutes at 3-minute intervals. […]

For `O=C(CCn1cnc2c(=O)[nH]cnc21)NCCc1c[nH]c2ccc(O)cc12` [AIT-202, N-(2-(5-hydroxyindol-3-yl)ethyl)-3-(6-oxohydropurin-9-yl)propanamide], the “effect on total serum cholesterol” value in test [1] is given as “lowers total serum cholesterol”. Moreover, the “benefit to treatment in obese mice” value in test [2] was “There appears to be benefit to treatment”. The “effect on HDL cholesterol” value in test [3] is “raises HDL cholesterol”. The “decrease of total serum cholesterol” value in test [4] was 18%. In test [5] (2-150 μM compound, tyramine substrate, FIGS. 2 and 3), the “effect on the catalytic activity of monoamine oxidase A and B” value is recorded as “significant effect”. Besides, the IC50 in test [5] (estimated, mouse brain mitochondrial protein 0.22-0.24 mg/mL, 150-166 μM tyramine, pH 7.4, 37° C.) is around 2 µM.

The term IC50 denotes the concentration that inhibits the measured activity by half.
